System: Acinetobacter baumannii clinical strains
Assay: Information of drug resistance of 10 clinical strains
Format: cell-based
Design: key: S: Drug Susceptible; I: Drug Intermediate; R: Drug Resistant

Row | Molecule | Drug resistance (strain TNP041702) | Drug resistance (strain TNP041703) | Drug resistance (strain TNP041704) | Drug resistance (strain TNP041705) | Drug resistance (strain TNP041706) | Drug resistance (strain TNP041707) | Drug resistance (strain TNP041708) | Drug resistance (strain TNP041709) | Drug resistance (strain TNP041710) | Drug resistance (strain TNP041711)
1 | CC(C)(O/N=C(\C(=O)N[C@@H]1C(=O)N2C(C(=O)[O-])=C(C[n+]3ccccc3)CS[C@H]12)c1csc(N)n1)C(=O)O [Ceftazidime] | R | R | R | R | R | R | R | R | R | R
2 | CO/N=C(\C(=O)N[C@@H]1C(=O)N2C(C(=O)O)=C(COC(N)=O)CS[C@H]12)c1ccco1 [Cefuroxime] | R | R | R | R | R | R | R | R | R | R
3 | C[C@@H](O)[C@H]1C(=O)N2C(C(=O)O)=C(SCCN=CN)C[C@H]12 [Imipenem] | R | R | R | R | R | R | R | R | R | R
4 | C[C@@H](O)[C@H]1C(=O)N2C(C(=O)O)=C(S[C@@H]3CN[C@H](C(=O)N(C)C)C3)[C@H](C)[C@H]12 [Meropenem] | R | R | R | R | R | R | R | R | R | R
5 | CCN1CCN(C(=O)N[C@@H](C(=O)N[C@@H]2C(=O)N3[C@@H]2SC(C)(C)[C@@H]3C(=O)O)c2ccccc2)C(=O)C1=O [Piperacillin] | R | R | R | R | R | R | R | R | R | R
6 | Gentamicin | R | R | R | R | S | R | R | R | R | R

From patent publication US12697325B2 (TENNOR THERAPEUTICS (SUZHOU) LIMITED, priority 2021, dated 2026)
